From PubChem BioAssay AID248 (DTP/NCI, 2004)
Values joined by “and” are separate entries in the source; they are usually repeats but may differ in a detail not shown here. Equal entries are not always repeated. Toxic doses and inconclusive results are not listed. No stated cut-off is given here; in the data, active means T/C of 150% or more; inactive means T/C below 125%.

System: L1210 leukemia ip in BDF1 mice, survival T/C
Test: NCI In Vivo Anticancer Drug Screen. Data for tumor model L1210 Leukemia (intraperitoneal) in B6D2F1 (BDF1) mice
Settings: endpoint: mean survival time, higher = longer survival
Method in brief: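 Read-out is survival time, reported as the treated-group measurement over the vehicle-control measurement.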

[1] = dose: 50.0 mg/kg/injection, schedule: Q01DX009 (ip), vehicle: saline
[2] = dose: 100.0 mg/kg/injection, schedule: Q01DX009 (ip), vehicle: saline
[3] = dose: 100.0 mg/kg/injection, schedule: Q04DX003 (ip), vehicle: saline
[4] = dose: 200.0 mg/kg/injection, schedule: Q04DX003 (ip), vehicle: saline
[5] = dose: 100.0 mg/kg/injection, schedule: Q01DX001 (ip), vehicle: Klucel (hydroxypropylcellulose) (HPC)
[6] = dose: 100.0 mg/kg/injection, schedule: Q04DX003 (ip), vehicle: Klucel (hydroxypropylcellulose) (HPC)
[7] = dose: 200.0 mg/kg/injection, schedule: Q01DX001 (ip), vehicle: Klucel (hydroxypropylcellulose) (HPC)
[8] = dose: 200.0 mg/kg/injection, schedule: Q01DX009 (ip), vehicle: Klucel (hydroxypropylcellulose) (HPC)
[9] = dose: 200.0 mg/kg/injection, schedule: Q04DX003 (ip), vehicle: Klucel (hydroxypropylcellulose) (HPC)
[10] = dose: 400.0 mg/kg/injection, schedule: Q01DX001 (ip), vehicle: Klucel (hydroxypropylcellulose) (HPC)
[11] = dose: 400.0 mg/kg/injection, schedule: Q01DX009 (ip), vehicle: Klucel (hydroxypropylcellulose) (HPC)
[12] = dose: 400.0 mg/kg/injection, schedule: Q04DX003 (ip), vehicle: Klucel (hydroxypropylcellulose) (HPC)
[13] = dose: 100.0 mg/kg/injection, schedule: Q01DX009 (ip), vehicle: Klucel (hydroxypropylcellulose) (HPC)

Measured: T/C

Nn1cnnc1
inactive: dose: 25.0 mg/kg/injection, schedule: Q01DX009 (ip), vehicle: saline 93 % of control | [1] 103 % of control | [2] 86 % of control and 88 % of control | [3] 104 % of control | [4] 96 % of control | dose: 400.0 mg/kg/injection, schedule: Q04DX003 (ip), vehicle: saline 102 % of control

Cc1cc(C)c(S(=O)(=O)C(=O)/C=N/N)c(C)c1
inactive: [5] 96 % of control | [6] 98 % of control | [7] 100 % of control | [8] 91 % of control | [9] 98 % of control | [10] 94 % of control | [11] 93 % of control | [12] 96 % of control

NCCNCCN1CC1
inactive: dose: 10.0 mg/kg/injection, schedule: Q04DX002 (ip), vehicle: saline 104 % of control | dose: 20.0 mg/kg/injection, schedule: Q04DX002 (ip), vehicle: saline 115 % of control | dose: 40.0 mg/kg/injection, schedule: Q04DX002 (ip), vehicle: saline 106 % of control

O=C1NC(=O)C(c2cccc(O)c2)N1 (stereo unspecified)
inactive: dose: 50.0 mg/kg/injection, schedule: Q01DX001 (ip), vehicle: saline 100 % of control | dose: 100.0 mg/kg/injection, schedule: Q01DX001 (ip), vehicle: saline 100 % of control | dose: 200.0 mg/kg/injection, schedule: Q01DX001 (ip), vehicle: saline 100 % of control | dose: 400.0 mg/kg/injection, schedule: Q01DX001 (ip), vehicle: saline 100 % of control

O=[N+]([O-])c1ccc(O)c2ncccc12
inactive: dose: 25.0 mg/kg/injection, schedule: Q04DX002 (ip), vehicle: Klucel (hydroxypropylcellulose) (HPC) 102 % of control | dose: 50.0 mg/kg/injection, schedule: Q01DX001 (ip), vehicle: carboxymethylcellulose (CMC) 101 % of control | dose: 50.0 mg/kg/injection, schedule: Q01DX015 (ip), vehicle: saline 97 % of control | dose: 50.0 mg/kg/injection, schedule: Q04DX002 (ip), vehicle: Klucel (hydroxypropylcellulose) (HPC) 94 % of control and 102 % of control | dose: 100.0 mg/kg/injection, schedule: Q01DX001 (ip), vehicle: carboxymethylcellulose (CMC) 109 % of control | dose: 100.0 mg/kg/injection, schedule: Q01DX015 (ip), vehicle: saline 93 % of control | dose: 100.0 mg/kg/injection, schedule: Q04DX002 (ip), vehicle: Klucel (hydroxypropylcellulose) (HPC) 94 % of control (2×) and 95 % of control | dose: 200.0 mg/kg/injection, schedule: Q01DX001 (ip), vehicle: carboxymethylcellulose (CMC) 95 % of control | dose: 200.0 mg/kg/injection, schedule: Q01DX015 (ip), vehicle: saline 95 % of control | dose: 200.0 mg/kg/injection, schedule: Q04DX002 (ip), vehicle: Klucel (hydroxypropylcellulose) (HPC) 110 % of control | dose: 400.0 mg/kg/injection, schedule: Q01DX015 (ip), vehicle: saline 91 % of control | dose: 400.0 mg/kg/injection, schedule: Q04DX002 (ip), vehicle: Klucel (hydroxypropylcellulose) (HPC) 91 % of control

ClCCN(CCCl)c1ccc(C[n+]2ccc3ccccc3c2)cc1
inactive: dose: 8.0 mg/kg/injection, schedule: Q01DX015 (ip), vehicle: carboxymethylcellulose (CMC) 109 % of control | dose: 16.0 mg/kg/injection, schedule: Q01DX015 (ip), vehicle: carboxymethylcellulose (CMC) 113 % of control | dose: 32.0 mg/kg/injection, schedule: Q01DX015 (ip), vehicle: carboxymethylcellulose (CMC) 106 % of control

Cc1cc(C)cc(N=Cc2ccccc2)c1
inactive: dose: 50.0 mg/kg/injection, schedule: Q01DX001 (ip), vehicle: saline with Tween-80 98 % of control | dose: 100.0 mg/kg/injection, schedule: Q01DX001 (ip), vehicle: saline with Tween-80 98 % of control | dose: 200.0 mg/kg/injection, schedule: Q01DX001 (ip), vehicle: saline with Tween-80 95 % of control

COc1ccc([N+](=O)[O-])cc1CN(C)C(C)C
inactive: dose: 12.5 mg/kg/injection, schedule: Q01DX009 (ip), vehicle: Klucel (hydroxypropylcellulose) (HPC) 97 % of control | dose: 12.5 mg/kg/injection, schedule: Q04DX003 (ip), vehicle: Klucel (hydroxypropylcellulose) (HPC) 97 % of control | dose: 25.0 mg/kg/injection, schedule: Q01DX009 (ip), vehicle: Klucel (hydroxypropylcellulose) (HPC) 97 % of control | dose: 25.0 mg/kg/injection, schedule: Q04DX003 (ip), vehicle: Klucel (hydroxypropylcellulose) (HPC) 100 % of control | dose: 50.0 mg/kg/injection, schedule: Q01DX009 (ip), vehicle: Klucel (hydroxypropylcellulose) (HPC) 92 % of control | dose: 50.0 mg/kg/injection, schedule: Q04DX003 (ip), vehicle: Klucel (hydroxypropylcellulose) (HPC) 97 % of control

O=C(/C=C/C=C\c1ccccc1)/C=C/C=C/c1ccccc1
inactive: [5] 91 % of control | [13] 92 % of control | [7] 93 % of control | [8] 92 % of control | [10] 93 % of control | [11] 89 % of control

Cc1cc(C(C)(C)C)c(OC(=S)N(C)C)c(C(C)(C)C)c1
inactive: dose: 12.5 mg/kg/injection, schedule: Q04DX003 (ip), vehicle: saline with Tween-80 96 % of control | dose: 25.0 mg/kg/injection, schedule: Q04DX003 (ip), vehicle: saline with Tween-80 94 % of control | dose: 50.0 mg/kg/injection, schedule: Q04DX003 (ip), vehicle: saline with Tween-80 100 % of control

N=C(OC1CCCCC1)N(Cc1ccccc1)Cc1ccccc1
inactive: dose: 44.0 mg/kg/injection, schedule: Q01DX Z (ip), vehicle: methylcellulose (MC) 104 % of control | dose: 66.0 mg/kg/injection, schedule: Q01DX Z (ip), vehicle: methylcellulose (MC) 104 % of control | dose: 100.0 mg/kg/injection, schedule: Q01DX Z (ip), vehicle: methylcellulose (MC) 117 % of control

C=CCCOC(C)=O
inactive: dose: 75.0 mg/kg/injection, schedule: Q04DX003 (ip), vehicle: saline 96 % of control | [13] 107 % of control | dose: 150.0 mg/kg/injection, schedule: Q04DX003 (ip), vehicle: saline 100 % of control | [8] 97 % of control | dose: 300.0 mg/kg/injection, schedule: Q04DX003 (ip), vehicle: saline 100 % of control | [11] 100 % of control

CCCOP(OCCC)OCCC
inactive: [1] 93 % of control | [2] 101 % of control | [3] 103 % of control | dose: 200.0 mg/kg/injection, schedule: Q01DX009 (ip), vehicle: saline 98 % of control | [4] 95 % of control

Cc1nc(-c2ccc(N=Cc3ccc(N(CCOS(C)(=O)=O)CCOS(C)(=O)=O)cc3)cc2)cs1
inactive: dose: 2.5 mg/kg/injection, schedule: Q04DX003 (ip), vehicle: Klucel (hydroxypropylcellulose) (HPC) 106 % of control | dose: 5.0 mg/kg/injection, schedule: Q04DX003 (ip), vehicle: Klucel (hydroxypropylcellulose) (HPC) 113 % of control | dose: 10.0 mg/kg/injection, schedule: Q04DX003 (ip), vehicle: Klucel (hydroxypropylcellulose) (HPC) 120 % of control | [6] 118 % of control | [9] 88 % of control

COc1cc(CC2(C#N)c3ccccc3C=CN2C(=O)c2ccccc2)c(Oc2cc(CC3(C#N)c4ccccc4C=CN3C(=O)c3ccccc3)ccc2OC)cc1OC (stereo unspecified)
inactive: [6] 98 % of control | [9] 93 % of control | [12] 92 % of control
